From patent US20170239237A1, “PYRROLOQUINOLINE DERIVATIVES AS 5-HT6 ANTAGONISTS, PREPARATION METHOD AND USE THEREOF” (Uniwersytet Jagiellonski, priority 2013, published 2017)
Marks after values point to notes of the source that are not given here.

Key:
5-HT6 receptor = 5-HT6 receptor (Homo sapiens, UniProt P50406); assay: Radioligand binding, 5-HT6 ([3H]-LSD displacement); conditions: for displacement % at 10^−6M, 5-HT6: values marked c in the 5-HT6 column
5-HT7 receptor = 5-HT7 receptor (Homo sapiens, UniProt P34969); assay: Radioligand binding, 5-HT7 ([3H]-5-CT displacement)
dopamine D2L receptor = dopamine D2L receptor (Homo sapiens, UniProt P14416); assay: Radioligand binding, D2 ([3H]-raclopride displacement)
5-HT1A receptor = molecular target: T1, 5-HT1A receptor (Homo sapiens, UniProt P08908); assay: Radioligand binding, 5-HT1A ([3H]-8-OH-DPAT displacement)
T1 sequence (P08908 1-422): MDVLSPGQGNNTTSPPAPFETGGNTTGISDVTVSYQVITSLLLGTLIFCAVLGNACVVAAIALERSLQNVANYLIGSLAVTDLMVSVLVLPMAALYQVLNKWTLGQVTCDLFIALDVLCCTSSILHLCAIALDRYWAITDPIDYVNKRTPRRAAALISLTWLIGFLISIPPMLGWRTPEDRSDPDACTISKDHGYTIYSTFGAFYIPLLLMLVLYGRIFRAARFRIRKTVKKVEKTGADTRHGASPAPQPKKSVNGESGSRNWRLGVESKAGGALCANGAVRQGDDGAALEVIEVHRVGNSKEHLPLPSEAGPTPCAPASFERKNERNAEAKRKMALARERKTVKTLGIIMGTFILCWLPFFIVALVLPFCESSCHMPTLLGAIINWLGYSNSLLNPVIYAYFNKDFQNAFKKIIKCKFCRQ

Sequence of 5-HT6 receptor (P50406 whole entry): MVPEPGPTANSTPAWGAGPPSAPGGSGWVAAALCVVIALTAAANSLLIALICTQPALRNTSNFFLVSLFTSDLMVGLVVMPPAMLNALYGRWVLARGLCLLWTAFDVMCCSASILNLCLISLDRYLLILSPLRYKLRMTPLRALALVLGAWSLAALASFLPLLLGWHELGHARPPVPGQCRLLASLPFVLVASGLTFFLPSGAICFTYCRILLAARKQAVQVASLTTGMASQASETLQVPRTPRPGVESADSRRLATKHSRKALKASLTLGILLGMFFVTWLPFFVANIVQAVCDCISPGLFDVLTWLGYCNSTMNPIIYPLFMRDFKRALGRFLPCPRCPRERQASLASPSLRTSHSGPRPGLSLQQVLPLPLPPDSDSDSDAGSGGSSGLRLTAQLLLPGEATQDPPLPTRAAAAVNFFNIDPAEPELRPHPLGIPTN
Sequence of dopamine D2L receptor (P14416 whole entry): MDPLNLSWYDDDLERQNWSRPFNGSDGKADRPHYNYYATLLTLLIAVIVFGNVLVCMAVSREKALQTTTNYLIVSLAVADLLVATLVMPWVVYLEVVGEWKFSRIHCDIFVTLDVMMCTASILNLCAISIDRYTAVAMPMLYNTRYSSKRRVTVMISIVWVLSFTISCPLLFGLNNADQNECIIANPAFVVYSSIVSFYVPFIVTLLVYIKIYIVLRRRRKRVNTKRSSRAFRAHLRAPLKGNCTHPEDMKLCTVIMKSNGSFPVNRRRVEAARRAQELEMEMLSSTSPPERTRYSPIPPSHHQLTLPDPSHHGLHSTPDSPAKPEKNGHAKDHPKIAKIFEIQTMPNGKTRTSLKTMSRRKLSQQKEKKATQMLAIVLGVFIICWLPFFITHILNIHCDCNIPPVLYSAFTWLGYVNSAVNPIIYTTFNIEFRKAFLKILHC
Sequence of 5-HT7 receptor (P34969 1-432 limits assumed): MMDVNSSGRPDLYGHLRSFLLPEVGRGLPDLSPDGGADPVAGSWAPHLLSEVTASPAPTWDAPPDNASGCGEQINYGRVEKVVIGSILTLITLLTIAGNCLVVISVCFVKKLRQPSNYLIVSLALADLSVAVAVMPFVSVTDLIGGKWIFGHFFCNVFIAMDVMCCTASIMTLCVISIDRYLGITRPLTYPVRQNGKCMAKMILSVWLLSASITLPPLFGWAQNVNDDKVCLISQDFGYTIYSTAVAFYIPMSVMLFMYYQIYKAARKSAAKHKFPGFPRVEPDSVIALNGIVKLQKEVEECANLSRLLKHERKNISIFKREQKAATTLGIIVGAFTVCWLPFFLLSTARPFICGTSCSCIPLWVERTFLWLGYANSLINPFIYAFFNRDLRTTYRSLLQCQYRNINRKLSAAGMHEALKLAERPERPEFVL

Compound	displacement % at 10^−6M, 5-HT6 (5-HT6 receptor)	Ki (5-HT7 receptor) [µM]	Ki (dopamine D2L receptor) [µM]	also measured
8-carbonitrile-1-(naphthalen-1-ylsulfonyl)-4-(piperazin-1-yl)-1H-pyrrolo[3,2-c]quinoline [Compound 67]	100^c %			
Nc1ccc(S(=O)(=O)n2ccc3c(N[C@H]4CCNC4)nc4ccccc4c32)cc1 [Compound 19, (S)-1-((4-aminophenyl)sulfonyl)-N-(pyrrolidin-3-yl)-1H-pyrrolo[3,2-c]quinolin-4-amine]	100^c %			
O=S(=O)(c1cccc2cccnc12)n1ccc2c(N3CCOCC3)nc3ccccc3c21 [Compound 79, 1-(quinolin-8-ylsulfonyl)-4-(morpholine-4-yl)-1H-pyrrolo[3,2-c]quinoline]		3.42	1.23	Ki (5-HT6 receptor): 0.095 µM
COc1cccc(S(=O)(=O)n2ccc3c(N4CCNCC4)nc4ccccc4c32)c1 [Compound 37, 1-((3-methoxyphenyl)sulfonyl)-4-(piperazin-1-yl)-1H-pyrrolo[3,2-c]quinoline]		5.25	7.04	Ki (5-HT1A receptor): 0.372 µM
O=S(=O)(c1cccc(C(F)(F)F)c1)n1ccc2c(N[C@H]3CCNC3)nc3ccccc3c21 [Compound 15, (S)-1-((3-(trifluoromethyl)phenyl)sulfonyl)-N-(pyrrolidin-3-yl)-1H-pyrrolo[3,2-c]quinolin-4-amine]	98^c %			
O=S(=O)(c1cc(F)ccc1F)n1ccc2c(NC3CCNC3)nc3ccccc3c21 (stereo not shown) [Compound 12, 1-((2,5-difluorophenyl)sulfonyl)-N-(pyrrolidin-3-yl)-1H-pyrrolo[3,2-c]quinolin-4-amine]		5.22		Ki (5-HT1A receptor): 7.06 µM; Ki (5-HT6 receptor): 0.009 µM
CC(C)c1ccc(S(=O)(=O)n2ccc3c(N4CCNCC4)nc4ccc([N+](=O)[O-])cc4c32)cc1 [Compound 63, 8-nitro-1-((4-isopropylphenyl)sulfonyl)-4-(piperazin-1-yl)-1H-pyrrolo[3,2-c]quinoline]	86^c %			
O=S(=O)(c1ccccc1)n1ccc2c(NC3CCNC3)nc3ccccc3c21 (stereo not shown) [Compound 4, 1-(phenylsulfonyl)-N-(pyrrolidin-3-yl)-1H-pyrrolo[3,2-c]quinolin-4-amine]		7.89		Ki (5-HT1A receptor): 9.15 µM; Ki (5-HT6 receptor): 0.004 µM
O=S(=O)(c1cccc(F)c1)n1ccc2c(N[C@H]3CCNC3)nc3ccccc3c21 [Compound 9, (S)-1-((3-fluorophenyl)sulfonyl)-N-(pyrrolidin-3-yl)-1H-pyrrolo[3,2-c]quinolin-4-amine]	99^c %			
Cc1ccc2sc(S(=O)(=O)n3ccc4c(N5CCNCC5)nc5ccccc5c43)cc2c1 [Compound 47, 1-((5-methylbenzo[b]thiophen-2-yl)sulfonyl)-4-(piperazin-1-yl)-1H-pyrrolo[3,2-c]quinoline]		2.96	1.56	Ki (5-HT6 receptor): 0.028 µM
O=S(=O)(c1ccccc1)n1ccc2c(N3CCNCC3)nc3ccccc3c21 [Compound 27, 1-(phenylsulfonyl)-4-(piperazin-1-yl)-1H-pyrrolo[3,2-c]quinoline]			1.13	Ki (5-HT1A receptor): 0.298 µM
O=S(=O)(c1cccc(C(F)(F)F)c1)n1ccc2c(N[C@@H]3CCNC3)nc3ccccc3c21 [Compound 16, (R)-1-((3-(trifluoromethyl)phenyl)sulfonyl)-N-(pyrrolidin-3-yl)-1H-pyrrolo[3,2-c]quinolin-4-amine]	99^c %			
Nc1ccc(S(=O)(=O)n2ccc3c(NC4CCNC4)nc4ccccc4c32)cc1 (stereo not shown) [Compound 18, 1-((4-aminophenyl)sulfonyl)-N-(pyrrolidin-3-yl)-1H-pyrrolo[3,2-c]quinolin-4-amine]	100^c %			
O=S(=O)(c1cccc(Cl)c1)n1ccc2c(NC3CCNC3)nc3cc(F)ccc3c21 (stereo not shown) [Compound 24, 7-fluoro-1-((3-chlorophenyl)sulfonyl)-N-(pyrrolidin-3-yl)-1H-pyrrolo[3,2-c]quinolin-4-amine]	95^c %			
CN1CCN(c2nc3ccccc3c3c2ccn3S(=O)(=O)c2ccc(F)cc2)CC1 [Compound 56, 1-((4-fluorophenyl)sulfonyl)-4-(4-methylpiperazin-1-yl)-1H-pyrrolo[3,2-c]quinoline]			0.393	Ki (5-HT1A receptor): 0.152 µM
Nc1ccc2nc(N3CCNCC3)c3ccn(S(=O)(=O)c4ccc(Cl)c(Cl)c4)c3c2c1 [Compound 65, 8-amino-1-((3,4-dichlorophenyl)sulfonyl)-4-(piperazin-1-yl)-1H-pyrrolo[3,2-c]quinoline]	90^c %			

Compound	displacement % at 10^−6M, 5-HT6 (5-HT6 receptor)	Ki (5-HT7 receptor) [µM]	Ki (dopamine D2L receptor) [µM]	also measured
O=S(=O)(c1ccc2ccccc2c1)n1ccc2c(N3CCNCC3)nc3ccccc3c21 [Compound 44, 1-(naphthalen-2-ylsulfonyl)-4-(piperazin-1-yl)-1H-pyrrolo[3,2-c]quinoline]	99^c %			
O=C(c1cccc(Cl)c1)n1ccc2c(N3CCNCC3)nc3ccccc3c21 [Compound 51, (3-chlorophenyl)-(4-(piperazin-1-yl)-1H-pyrrolo[3,2-c]quinolin-1-yl)methanone]	90^C %			
O=S(=O)(c1cccc(C(F)(F)F)c1)n1ccc2c(N3CCNCC3)nc3ccccc3c21 [Compound 35, 1-((3-(trifluoromethyl)phenyl)sulfonyl)-4-(piperazin-1-yl)-1H-pyrrolo[3,2-c]quinoline]		6.39	2.63	
O=S(=O)(c1ccc(Cl)c(Cl)c1)n1ccc2c(N3CCNCC3)nc3ccccc3c21 [Compound 34, 1-((3,4-dichlorophenyl)sulfonyl)-4-(piperazin-1-yl)-1H-pyrrolo[3,2-c]quinoline]		1.98	1.55	
CC(C)(C)c1ccc(S(=O)(=O)n2ccc3c(NC4CCNC4)nc4ccccc4c32)cc1 (stereo not shown) [Compound 17, 1-((4-(tert-butyl)phenyl)sulfonyl)-N-(pyrrolidin-3-yl)-1H-pyrrolo[3,2-c]quinolin-4-amine]		1.29		Ki (5-HT1A receptor): 6.31 µM; Ki (5-HT6 receptor): 0.101 µM
CN1CCN(c2nc3ccccc3c3c2ccn3S(=O)(=O)c2cccc3ccccc23)CC1 [Compound 58, 1-(naphthalen-1-ylsulfonyl)-4-(4-methylpiperazin-1-yl)-1H-pyrrolo[3,2-c]quinoline]			0.826	Ki (5-HT1A receptor): 0.211 µM; Ki (5-HT6 receptor): 0.036 µM
Clc1cccc(Cn2ccc3c(N4CCNCC4)nc4ccccc4c32)c1 [Compound 49, 1-(3-chlorobenzyl)-4-(piperazin-1-yl)-1H-pyrrolo[3,2-c]quinoline]		3.27		Ki (5-HT1A receptor): 3.26 µM
O=S(=O)(c1cccc(Cl)c1)n1ccc2c(NC3CNC3)nc3ccccc3c21 [Compound 2, 1-((3-chlorophenyl)sulfonyl)-N-(azetidin-3-yl)-1H-pyrrolo[3,2-c]quinolin-4-amine]	98^c %			
CC(C)(C)c1ccc(S(=O)(=O)n2ccc3c(N4CCNCC4)nc4ccccc4c32)cc1 [Compound 41, 1-((4-(tert-butyl)phenyl)sulfonyl)-4-(piperazin-1-yl)-1H-pyrrolo[3,2-c]quinoline]		8.45	1.68	Ki (5-HT6 receptor): 0.041 µM
O=S(=O)(c1cccc2ccccc12)n1ccc2c(N3CCNCC3)nc3ccc(Cl)cc3c21 [Compound 71, 8-chloro-1-(naphthalen-1-ylsulfonyl)-4-(piperazin-1-yl)-1H-pyrrolo[3,2-c]quinoline]	98^c %			
CNC1CCN(c2nc3ccccc3c3c2ccn3S(=O)(=O)c2ccccc2)C1 (stereo not shown) [Compound 26, N-methyl-1-(1-(phenylsulfonyl)-1H-pyrrolo[3,2-c]quinolin-4-yl)pyrrolidin-3-amine]	90^c %			
O=S(=O)(c1ccc(Cl)s1)n1ccc2c(N3CCNCC3)nc3ccccc3c21 [Compound 46, 1-((5-chlorothiophen-2-yl)sulfonyl)-4-(piperazin-1-yl)-1H-pyrrolo[3,2-c]quinoline]			0.817	Ki (5-HT1A receptor): 0.59 µM; Ki (5-HT6 receptor): 0.008 µM
O=S(=O)(c1cccc(Cl)c1)n1ccc2c(NC3CCNC3)nc3ccc(Cl)cc3c21 (stereo not shown) [Compound 25, 8-chloro-1-((3-chlorophenyl)sulfonyl)-N-(pyrrolidin-3-yl)-1H-pyrrolo[3,2-c]quinolin-4-amine]	96^c %			
O=S(=O)(c1cccc(Cl)c1)n1ccc2c(N3CCCNCC3)nc3ccccc3c21 [Compound 75, 1-((3-chlorophenyl)sulfonyl)-4-(1,4-diazepan-1-yl)-1H-pyrrolo[3,2-c]quinoline]	100^c %			
Nc1ccc(S(=O)(=O)n2ccc3c(N[C@@H]4CCNC4)nc4ccccc4c32)cc1 [Compound 20, (R)-1-((4-aminophenyl)sulfonyl)-N-(pyrrolidin-3-yl)-1H-pyrrolo[3,2-c]quinolin-4-amine]	99^c %			
O=S(=O)(c1cc(F)ccc1F)n1ccc2c(OC3CCNC3)nc3ccccc3c21 (stereo not shown) [Compound 81, 1-((2,5-difluorophenyl)sulfonyl)-4-(pyrrolidin-3-yloxy)-1H-pyrrolo[3,2-c]quinoline]	96^c %			
